In data set [1] the test system is human lung fibroblasts (HLF). Description: Cell viability assay, caspase-3/7 as marker of apoptosis. In kind it is cell-based. As to conditions: 24 h. Here is the method:
Cell viability was measured using caspase-3/7 expression as a marker of apoptosis after treatment for 24 h with test compounds. HLF were seeded overnight at 6,000 cells/well in 96-well black ViewPlates, before being starved for 24 hours in culture medium devoid of FBS. Cells were incubated for 24 hours in the presence of test compounds at the top concentrations used in the proliferation assays, or in the presence of 100 nM staurosporine to induce apoptosis.
The presence of the apoptotic marker caspase-3/7 was detected by incubating cells with 8 μM CellEvent™ Caspase-3/7 Red Detection Reagent in dPBS with 5 % FBS, for 30 minutes at 37°C. […] Images were analyzed using a multi wavelength cell scoring algorithm within the MetaXpress 5.3 software, which measures cell number using stained nuclei, and percent of these cells positive for caspase-3/7 from Cy5 readouts. To account for the inter-assay variation in levels of caspase 3/7 detected in each experiment, data were normalized to the staurosporine response.
Statistical significance across treatment groups was determined by using the one-way ANOVA with Dunnett’s multiple-comparison post hoc test.

Data set [2] relates to human lung fibroblasts (HLF). Description: Fibroblast to myofibroblast transdifferentiation (FMT), αSMA immunofluorescence, TGFβ-driven. Type of data set: cell-based. As to conditions: 48 h, TGFβ 0.3 ng/mL. Here is the method:
To assess the differentiation of fibroblasts to the myofibroblast phenotype, immunofluorescence was used to monitor increases in α smooth muscle actin (αSMA). HLF were seeded overnight at 1000 cells/well in 384-well black clear bottom plates, before being starved for 24 h growth medium devoid of FBS.
For anti-remodelling assays using FMT, cells were incubated for 48 h with a range of concentrations of test compounds and incubated for 48 h, at 37°C, 5% CO2 in the presence of a near maximal concentration of TGFβ (0.3 ng/mL), to promote differentiation in DMEM supplemented with 0.1% w/v HSA. Following stimulation, cells were fixed in 4% paraformaldehyde, washed 3× in PBS (with Ca^2+/Mg^2+), and incubated with permeabilising blocking buffer (dPBS (with Ca^2+/Mg^2+), 10% FBS (v/v), 0.1% Triton X-100 (v/v)) for 1 h at 37°C. Wells were then washed 3× in wash buffer (Tris Buffered Saline (TBS), 0.05% (v/v) Tween-20) and incubated with mouse anti-α SMA (1:1000 dilution in permeabilising blocking buffer) for 1 h at room temperature, with gentle shaking. Following 3× wash in wash buffer, wells were incubated with blocking buffer containing Hoechst to stain for nuclear DNA (2 μM), and FITC-conjugated Affini-pure goat […] IgG (1:1000 dilution in blocking buffer) for 30 min at 37°C. Fluorescence was then quantified on a widefield ImageXpress Micro microscope, with a Plan Fluor 20X objective, DAPI filter cube (excitation 400–418 nm, emission 435–470 nm), 50 ms exposure time for nuclei, and FITC filter cube (excitation 467–498 nm, emission 513–556 nm), 200 ms exposure time for αSMA.
To quantify increases in αSMA fluorescence, a standard Multi-Wavelength Cell Scoring algorithm was used in MetaXpress 5.3 software (Molecular Devices, California, USA). To account for the inter-assay variation in levels of αSMA expression produced in each experiment, data were normalized to the response to TGFβ.

Data set [3] deals with human lung fibroblasts (HLF). Description: PDGF-mediated ERK phosphorylation (pERK imaging). Type of data set: cell-based. As to conditions: 30 min pre-incubation, 3 ng/mL PDGF for 10 min. Here is the method: HLF were seeded overnight at 6000 cells/well in 96-well black clear bottom plates then starved for 24 h in the growth medium devoid of all additives. […] Fluorescence was then quantified on the InCell2000, using DAPI settings to visualize nuclei (0.1 s exp) and FITC settings for pERK (2 s exp). To quantify levels of pERK fluorescence, a standard Multi-Target Analysis algorithm was used in the INCell Analyzer Workstation (v3.7.1). To account for the inter-assay variation in levels of ERK phosphorylation produced in each experiment, data were normalized to the EC80 PDGF response.

Data set [4] has as its system human lung fibroblasts (HLF). Description: HLF proliferation by BrdU incorporation (DELFIA), driven by FBS or PDGF. As to conditions: Homo sapiens, Fibroblast, inhibition of BrdU incorporation, 24 h, NC = not calculated due to incomplete curve; for EC50: mean ± SEM. Type of data set: cell-based. How it is done:
Proliferation of HLF was measured by incorporation of bromodeoxyuridine (BrdU). HLF were seeded overnight at 4000 cells/well in 96-well black ViewPlates, before being starved for 24 h in culture medium devoid of FBS. Proliferation was measured after incubation with a range of concentrations of FBS or PDGF, in DMEM supplemented with 0.1% w/v HSA, for 24 h.
For anti-remodelling assays using BrdU incorporation, cells were incubated for 24 h with a range of concentrations of test compounds in the presence of near maximal concentrations of FBS or PDGF in DMEM supplemented with 0.1% w/v HSA. Proliferation was assessed using the DELFIA BrdU incorporation assay kit following manufacturer protocol. Fluorescence was measured using a Packard EnVision plate reader. To account for the inter-assay variation in levels of proliferation in each experiment, data were normalized to the PDGF or FBS response.

The subject of data set [5] is human lung fibroblasts (HLF). Description: cAMP accumulation in HLF (HitHunter or AlphaScreen). Type of data set: cell-based. The settings on record: Homo sapiens, Fibroblast, HLF, 2 h, mean ± SEM, NC = not calculated due to incomplete curve; for EC50: room temperature, 5 μM rolipram (excluded for PDE inhibitors), at least 3 experiments, read-out: cAMP pEC50 (converted); for Emax: percentage of the maximal forskolin response, read-out: cAMP Emax (% max). Here is the method:
HLF were grown to confluency in 96-well white ViewPlates, before incubation with a range of agonist concentrations, or vehicle, for 2 h at room temperature in HBSS with 5 mM HEPES, 0.1% w/v HSA, and 5 μM rolipram. […] Rolipram was excluded when measuring cAMP levels in response to PDE inhibitors. cAMP levels were measured using either HitHunter cAMP assay or AlphaScreen competition assay following manufacturer protocol, and were assessed on either a BMG LABTEK ClarioStar or a Packard EnVision plate reader. cAMP concentrations in each well were determined using a standard curve. To account for the inter-assay variation in levels of cAMP produced in each experiment, data were normalized to the maximal forskolin response.

Data set [6] can be described thus: Agonist concentration remaining after incubation with HLF. In kind it is in vitro ADME, human. The settings on record: after 24 h incubation with HLF; unpublished data.
For data set [7], the system named is human lung fibroblasts (HLF). Description: Fibroblast to myofibroblast transdifferentiation (FMT), αSMA immunofluorescence, TGFβ-driven. In kind it is cell-based. The settings on record: data not shown.
Setting [8] is: EC80 PDGF, percentage of maximal proliferation observed with PDGF, read-out: Proliferation vs PDGF Emax (% max).
Setting [9] is: EC80 concentration of PDGF, read-out: Proliferation vs PDGF pEC50 (converted).
The mark [10] stands for this setting: EC80 concentration of serum, read-out: Proliferation vs serum pEC50 (converted).
Setting [11] is: EC80 serum, percentage of maximal proliferation observed with serum, read-out: Proliferation vs serum Emax (% max).

Consider `C=C[C@@]1(C)CC(=O)[C@]2(O)[C@@]3(C)[C@@H](O)CCC(C)(C)[C@@H]3[C@H](O)[C@H](OC(C)=O)[C@@]2(C)O1` [Forskolin], for which the “% cells positive for caspase-3/7, 1:10 dilution” value (“% cells positive … 1:10 dilution” for short) in data set [1] (human, 3 μM) was 0.61 ± 0.15%. For the same molecule, the “% cells positive for caspase-3/7, Top conc” value (shortened to “% cells positive … Top conc”) in data set [1] (human, 30 μM) was 1.26 ± 0.35%. Also, the “inhibition of TGFβ-driven FMT (in words)” value in data set [2] is recorded as “completely inhibit FMT”. Moreover, the “inhibition of PDGF-mediated ERK phosphorylation (in words)” value in data set [3] was “inhibited PDGF-mediated ERK phosphorylation”. In addition, the figures for the Emax in data set [4] (setting [8]) and in data set [4] (setting [11]) were 90.8 ± 9.12% and 74 ± 6.7%, respectively. Also, the EC50 in data set [4] (setting [9]) was 1050 nM; in data set [4] (setting [10]), 5250 nM.

Turning to `CC(C)N(CCCCOCC(=O)O)c1cnc(-c2ccccc2)c(-c2ccccc2)n1` [MRE-269], in data set [1] (HLF, 1:10 dilution of top conc 10 μM), the “% cells positive … 1:10 dilution” value was 0.49 ± 0.22%. Moreover, in data set [1] (HLF, top conc 10 μM, mean ± SEM, n=3), the “% cells positive … Top conc” value is 0.49 ± 0.21%. Besides, the EC50 in data set [5] was 178 nM; in data set [4] (setting [9]) it was 316 nM. Moreover, the results for the Emax in data set [5] and in data set [4] (setting [8]) were 52.9 ± 4.36% and 85.7 ± 7.65%, respectively. For the same molecule, the “original concentration of agonist remaining” value in data set [6] was greater than 90%. Also, the “inhibition of TGFβ-driven FMT (in words)” value in data set [2] is recorded as “completely inhibit FMT”.

For `CCCCC[C@H](O)CC[C@@H]1[C@H]2Cc3cccc(OCC(=O)O)c3C[C@H]2C[C@H]1O` [Treprostinil], the “% cells positive … 1:10 dilution” value in data set [1] (human, 1 μM) turned out to be 0.92 ± 0.25%. Also, the “% cells positive … Top conc” value in data set [1] (human, 10 μM) came out at 0.76 ± 0.06%. Further, the EC50 was 151 nM in data set [5], 29.5 nM in data set [4] (setting [9]) and 102 nM in data set [4] (setting [10]). In addition, the Emax in data set [5] is 101 ± 0.58%; in data set [4] (setting [8]), 63.7 ± 6.39%; in data set [4] (setting [11]), 42.5 ± 5.36%. Further, the “original concentration of agonist remaining” value in data set [6] was greater than 90%.

With Transforming growth factor β [TGFβ], in data set [7], the “EC50 for promoting FMT” value amounted to 0.07 ± 0.01 ng/mL.

The values above are taken from article PMC5889558, “The inhibition of human lung fibroblast proliferation and differentiation by Gs-coupled receptors is not predicted by the magnitude of cAMP response” (Respiratory Research, 2018).
